Literature values, collected in US8679552B2, “Acne vulgaris treatment regimen” (priority 2008, dated 2014).

Key:
[1] = tested on: 5 alpha-reductase
[2] = tested on: comedones; conditions: topical
[3] = tested on: gram-positive bacteria
[4] = biological target: T1, type-1 5 alpha-reductase (Homo sapiens, UniProt P18405)
T1 sequence (P18405 1-259): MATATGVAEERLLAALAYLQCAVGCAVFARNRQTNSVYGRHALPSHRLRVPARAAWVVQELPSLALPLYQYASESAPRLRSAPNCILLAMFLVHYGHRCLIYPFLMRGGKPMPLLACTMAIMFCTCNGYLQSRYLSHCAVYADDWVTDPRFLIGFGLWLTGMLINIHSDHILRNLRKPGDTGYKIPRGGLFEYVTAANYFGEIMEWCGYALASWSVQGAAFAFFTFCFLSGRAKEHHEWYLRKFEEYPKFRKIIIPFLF

[5] = tested on: skin irritation; conditions: concentrations of 5%, three to four week period
[6] = tested on: 17-beta-hydroxysteroid dehydrogenase
[7] = tested on: 5 alpha-reductase; remark: listed apart in the source

**Q.** For `O=C(O)CCCCCCCC(=O)O` [Azelaic acid], which “concentration at which effective / potent 5 alpha-reductase inhibitor” value [1] is on record?
**A.** The value was at least 0.2 milliMolar.

**Q.** And the “concentration that is completely inhibitory of 5 alpha-reductase” value [1]?
**A.** Its value is 3 milliMolar.

**Q.** With `CC1=C(/C=C/C(C)=C/C=C/C(C)=C/C=O)C(C)(C)CCC1` [Retinaldehyde] as the molecule, how does the “effectiveness at preventing comedones” value ([2]; concentration of 0.1%) read?
**A.** The value was “as effective at preventing comedones as other topical vitamin A products”.

**Q.** What about the “in vitro antibacterial activity against gram-positive bacteria” value [3] of the same molecule?
**A.** The value was “significant in vitro antibacterial activity”.

**Q.** Which “increase in the inhibition of 5 alpha-reductase” value ([1]; Vitamin B6 (0.025%) added to zinc sulfate (1.5 to 3 milliMolar/liter)) does the source give for `Cc1ncc(CO)c(CO)c1O.Cl` [Vitamin B6, Pyridoxine hydrochloride] here?
**A.** The value was “two fold increase”.

**Q.** For `[Zn+2]` [Zinc cation], which “inhibition of 5 alpha-reductase enzyme activity at high concentrations” value ([1]; high concentrations) is on record?
**A.** Its value is “completely inhibiting the enzyme activity”.

**Q.** Which “inhibition of type-1 5 alpha-reductase” value [4] does the source give for `O=C1c2ccccc2C(=O)c2c1ccc(O)c2O` [alizarin] here?
**A.** Its value is “potent inhibitors”.

**Q.** Which “inhibition of type-1 5 alpha-reductase” value [4] does the source give for `Oc1ccc2c(O)c3ccccc3cc2c1O` [anthrarobin] here?
**A.** The value was “potent inhibitors”.

**Q.** Which “inhibition of type-1 5 alpha-reductase” value [4] does the source give for `O=c1cc(-c2ccccc2)oc2cc(O)c(O)c(O)c12` [baicalein] here?
**A.** Its value is “potent inhibitors”.

**Q.** Which “inhibition of type-1 5 alpha-reductase” value [4] does the source give for `O=C(/C=C/c1ccc(O)c(O)c1)OCCc1ccccc1` [caffeic acid phenethyl ester] here?
**A.** The value was “potent inhibitors”.

**Q.** With `CC(C)(CO)[C@@H](O)C(=O)NCCCO` [dexpanthenol] as the molecule, how does the “symptoms of skin irritation (dryness, roughness, scaling, pruritis, erythema, erosion/fissures)” value [5] read?
**A.** Its value is “considerably improves”.

**Q.** Which “5 alpha-reductase inhibitory activity” value [1] does the source give for `O=C1OC[C@H](Cc2cccc(O)c2)[C@H]1Cc1cccc(O)c1` [enterolactone] here?
**A.** The value was “most potent inhibitor”.

**Q.** For `O=c1c(O)c(-c2ccc(O)c(O)c2)oc2cc(O)ccc12` [fisetin], which “inhibition of type-1 5 alpha-reductase” value [4] is on record?
**A.** The value was “potent inhibitors”.

**Q.** Which “concentration which suppresses 17-beta-hydroxysteroid dehydrogenase activity” value [6] does the source give for `CC1(C)[C@@H](O)CC[C@]2(C)[C@H]3C(=O)C=C4[C@@H]5C[C@@](C)(C(=O)O)CC[C@]5(C)CC[C@@]4(C)[C@]3(C)CC[C@@H]12` [glycyrrhetinic acid] here?
**A.** The value was at least 4 microMolar.

**Q.** For `CCCCCCCCCCCCOC(=O)c1cc(O)c(O)c(O)c1` [lauryl gallate], which “inhibition of type-1 5 alpha-reductase” value [4] is on record?
**A.** The value was “potent inhibitors”.

**Q.** With `CC(Cc1ccc(O)c(O)c1)C(C)Cc1ccc(O)c(O)c1` (stereo not drawn) [nordihydroguaiaretic acid] as the molecule, how does the “inhibition of type-1 5 alpha-reductase” value [4] read?
**A.** The value was “potent inhibitors”.

**Q.** Which “inhibition of type-1 5 alpha-reductase” value [4] does the source give for `CCCCCCCCOC(=O)c1cc(O)c(O)c(O)c1` [octyl gallate] here?
**A.** The value was “potent inhibitors”.

**Q.** For `O=c1c(O)c(-c2ccc(O)c(O)c2)oc2cc(O)cc(O)c12` [quercitin], which “inhibition of type-1 5 alpha-reductase” value [4] is on record?
**A.** The value was “potent inhibitors”.

**Q.** With `O=C(O)c1ccccc1O` [salicylic acid, Salicylic acid] as the molecule, how does the comedolytic effect ([2]; concentrations of 0.5% to 2.0%) read?
**A.** The comedolytic effect was “moderately comedolytic”.

**Q.** For epigallocatechin 3-gallate [EGCG], which “inhibition of 5 alpha-reductase in whole-cell assay systems” value [7] is on record?
**A.** Its value is “not in whole-cell assay systems”.

**Q.** What about the “inhibition of 5 alpha-reductase in cell-free assay systems” value ([1]; cell-free) of the same molecule?
**A.** Its value is “potent inhibition”.
